According to US20180008718A1, “COMPOSITIONS FOR THE SUSTAINED RELEASE OF ANTI-GLAUCOMA AGENTS TO CONTROL INTRAOCULAR PRESSURE” (The Johns Hopkins University, priority 2015, published 2018):

Tests used:
[1] = tested on: normal, C57BL/6 mice; experiment: IOP lowering effect in normal mice after administration via the epischleral vein at the limbus; assay type: in vivo
Description: FIG. 2A is a graph showing intraocular pressure (IOP, mmHg) as function of administration of free ECA and a control over time (days). FIG. 2B is a graph showing intraocular pressure (IOP, mmHg) as function of administration of ECA-L-cysteine particles and a control over time (days).

[2] = tested on: human patients with elevated IOP; conditions: intracameral administration; cited from earlier work
[3] = In vitro drug release kinetics of ECA-L-Cysteine polyanhydride microparticles; assay type: physicochemical; conditions: accelerated infinite sink conditions at 37° C.; FIG. 1
Description: FIG. 1 is a graph showing the release of ECA-L-cysteine (% release) as a function of time (days).

Row | SMILES | duration of the IOP lowering effect ([1]; 1 μg drug via epischleral vein at the limbus) | IOP lowering compared to the untreated control group ([1]; 1 μg drug via epischleral vein at the limbus, FIGS. 2A and 2B) | IOP lowering effect by Day 5 ([1]; 1 μg free drug, Day 5) | duration of IOP lowering [2] | time over which ECA-L-Cysteine conjugate was continually released in vitro [3]
1 | C=C(CC)C(=O)c1ccc(OCC(=O)O)c(Cl)c1Cl [free ECA, ethacrynic acid] | 1 days | significant lowering of IOP | gone | three | 
2 | CCC(CSC[C@H](N)C(=O)O)C(=O)c1ccc(OCC(=O)O)c(Cl)c1Cl (stereo partly drawn) [ECA-L-Cysteine conjugate] |  |  |  |  | 14 days
